In patent US7947717B2 (priority 2008, dated 2011):
Read-outs that look alike come from different tables or passages of the source.

Assays:
lethal factor (LF) = lethal factor (LF) (Bacillus anthracis, UniProt P15917); assay: biochemical; type: biochemical
HepG2 cells = conditions: human
[1] = rat
physchem = conditions: 23 °C, pH 7.4, aqueous with cosolvent or surfactant or cyclodextrin, kinetic from dmso stock
in vitro [2] = conditions: rat, hepatocytes, pH 7.4
in vitro [3] = conditions: s9
hERG = hERG (Homo sapiens, UniProt Q12809); assay: in vitro
Chain of hERG (Q12809 whole entry): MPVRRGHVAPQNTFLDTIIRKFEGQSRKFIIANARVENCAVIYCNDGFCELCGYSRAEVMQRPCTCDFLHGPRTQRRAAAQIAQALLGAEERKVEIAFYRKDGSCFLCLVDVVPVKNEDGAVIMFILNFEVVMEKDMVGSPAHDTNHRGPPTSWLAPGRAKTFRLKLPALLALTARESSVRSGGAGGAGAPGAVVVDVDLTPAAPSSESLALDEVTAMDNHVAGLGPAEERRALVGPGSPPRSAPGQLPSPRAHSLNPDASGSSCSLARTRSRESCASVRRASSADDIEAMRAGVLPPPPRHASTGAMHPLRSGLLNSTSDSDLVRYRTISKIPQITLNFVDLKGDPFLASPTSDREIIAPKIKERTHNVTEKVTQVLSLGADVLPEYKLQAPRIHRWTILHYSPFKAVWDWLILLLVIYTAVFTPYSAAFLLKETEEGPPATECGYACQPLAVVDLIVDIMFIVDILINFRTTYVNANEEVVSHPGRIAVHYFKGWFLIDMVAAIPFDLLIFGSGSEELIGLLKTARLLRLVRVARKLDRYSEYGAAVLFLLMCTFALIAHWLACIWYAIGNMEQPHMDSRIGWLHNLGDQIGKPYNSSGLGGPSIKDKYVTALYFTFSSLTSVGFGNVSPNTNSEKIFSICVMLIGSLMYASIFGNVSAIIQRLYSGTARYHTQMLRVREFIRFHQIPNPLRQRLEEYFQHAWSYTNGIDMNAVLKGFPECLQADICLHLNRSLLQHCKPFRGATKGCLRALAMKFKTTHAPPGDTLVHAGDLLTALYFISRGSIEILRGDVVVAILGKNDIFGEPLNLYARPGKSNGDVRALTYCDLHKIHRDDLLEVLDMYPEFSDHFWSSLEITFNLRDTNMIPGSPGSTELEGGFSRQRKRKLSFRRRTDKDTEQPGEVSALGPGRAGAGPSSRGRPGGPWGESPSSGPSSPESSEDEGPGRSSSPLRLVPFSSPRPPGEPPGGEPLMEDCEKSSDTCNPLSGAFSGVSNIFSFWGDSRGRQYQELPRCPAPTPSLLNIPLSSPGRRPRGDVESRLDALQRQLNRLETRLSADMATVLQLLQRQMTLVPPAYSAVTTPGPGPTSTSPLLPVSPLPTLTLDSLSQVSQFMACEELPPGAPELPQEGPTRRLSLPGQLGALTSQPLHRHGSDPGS

human CYP 2C19 = human CYP 2C19 (Homo sapiens, UniProt P33261); assay: biochemical
Chain of human CYP 2C19 (P33261 whole entry): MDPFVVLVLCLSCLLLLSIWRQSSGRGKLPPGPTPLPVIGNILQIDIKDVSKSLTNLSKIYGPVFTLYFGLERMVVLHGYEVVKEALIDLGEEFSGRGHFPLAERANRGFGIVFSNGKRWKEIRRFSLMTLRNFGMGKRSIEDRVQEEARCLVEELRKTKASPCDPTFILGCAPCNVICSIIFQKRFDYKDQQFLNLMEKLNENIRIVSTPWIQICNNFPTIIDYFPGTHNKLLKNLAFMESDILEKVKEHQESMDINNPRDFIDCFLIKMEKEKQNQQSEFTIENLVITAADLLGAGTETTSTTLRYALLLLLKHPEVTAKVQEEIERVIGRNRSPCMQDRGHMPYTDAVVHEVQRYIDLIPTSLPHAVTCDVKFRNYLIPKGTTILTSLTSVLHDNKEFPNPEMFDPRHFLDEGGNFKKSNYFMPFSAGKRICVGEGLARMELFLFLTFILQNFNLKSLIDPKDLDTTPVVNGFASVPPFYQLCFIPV

human CYP2D6 = human CYP2D6 (Homo sapiens, UniProt P10635); assay: biochemical
Chain of human CYP2D6 (P10635 whole entry): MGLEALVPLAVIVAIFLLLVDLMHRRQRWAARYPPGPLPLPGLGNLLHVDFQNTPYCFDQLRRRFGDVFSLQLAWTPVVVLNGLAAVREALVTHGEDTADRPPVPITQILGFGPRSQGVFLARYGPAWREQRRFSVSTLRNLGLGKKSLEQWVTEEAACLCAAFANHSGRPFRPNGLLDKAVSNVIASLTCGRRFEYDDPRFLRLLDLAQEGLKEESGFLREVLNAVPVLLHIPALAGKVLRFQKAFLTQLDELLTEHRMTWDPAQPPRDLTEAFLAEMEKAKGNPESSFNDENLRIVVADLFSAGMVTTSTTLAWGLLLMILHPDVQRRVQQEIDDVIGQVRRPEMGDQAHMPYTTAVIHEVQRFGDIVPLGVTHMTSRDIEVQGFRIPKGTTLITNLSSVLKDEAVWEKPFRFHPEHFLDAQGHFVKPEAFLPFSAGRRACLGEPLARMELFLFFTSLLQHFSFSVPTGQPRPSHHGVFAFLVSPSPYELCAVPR

human CYP1A2 = biological target: T1, human CYP1A2 (Homo sapiens, UniProt P05177); assay: biochemical
T1 sequence (P05177 1-516): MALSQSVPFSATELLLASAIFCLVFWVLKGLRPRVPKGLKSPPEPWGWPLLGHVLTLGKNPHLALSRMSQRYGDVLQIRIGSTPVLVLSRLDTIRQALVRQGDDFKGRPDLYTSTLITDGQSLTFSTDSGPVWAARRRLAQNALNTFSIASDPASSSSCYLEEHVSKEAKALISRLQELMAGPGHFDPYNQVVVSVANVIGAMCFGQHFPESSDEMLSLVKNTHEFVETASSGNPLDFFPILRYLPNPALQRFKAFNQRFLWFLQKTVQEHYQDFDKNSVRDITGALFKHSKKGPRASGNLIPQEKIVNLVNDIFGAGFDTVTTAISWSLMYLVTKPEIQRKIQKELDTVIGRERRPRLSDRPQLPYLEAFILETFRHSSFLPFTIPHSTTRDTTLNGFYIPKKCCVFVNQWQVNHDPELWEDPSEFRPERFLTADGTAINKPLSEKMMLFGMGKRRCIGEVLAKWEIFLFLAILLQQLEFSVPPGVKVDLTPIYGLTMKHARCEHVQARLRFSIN

human CYP2C9 = human CYP2C9 (Homo sapiens, UniProt P11712); assay: biochemical
Chain of human CYP2C9 (P11712 whole entry): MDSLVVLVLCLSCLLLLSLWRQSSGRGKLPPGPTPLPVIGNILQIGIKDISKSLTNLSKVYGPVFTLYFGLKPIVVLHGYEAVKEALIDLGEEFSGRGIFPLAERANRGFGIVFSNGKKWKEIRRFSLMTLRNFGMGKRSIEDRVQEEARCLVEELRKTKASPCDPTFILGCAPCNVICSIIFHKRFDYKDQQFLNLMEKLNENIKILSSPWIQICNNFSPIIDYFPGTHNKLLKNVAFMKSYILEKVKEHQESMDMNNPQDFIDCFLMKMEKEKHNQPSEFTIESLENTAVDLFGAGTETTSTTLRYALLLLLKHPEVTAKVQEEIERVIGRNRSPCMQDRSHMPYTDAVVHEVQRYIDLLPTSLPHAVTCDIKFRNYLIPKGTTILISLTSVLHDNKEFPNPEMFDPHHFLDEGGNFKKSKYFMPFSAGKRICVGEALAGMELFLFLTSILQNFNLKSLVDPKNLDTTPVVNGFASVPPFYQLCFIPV

BoNT A = BoNT A (Clostridium botulinum, UniProt P0DPI0); assay: biochemical
MMP-2 = biological target: T2, MMP-2 (Homo sapiens, UniProt P08253); assay: MMP-2 assay (Anaspec kit); type: biochemical
T2 construct: purchased Anaspec, Inc. 71151/71155
T2 sequence (P08253 110-660): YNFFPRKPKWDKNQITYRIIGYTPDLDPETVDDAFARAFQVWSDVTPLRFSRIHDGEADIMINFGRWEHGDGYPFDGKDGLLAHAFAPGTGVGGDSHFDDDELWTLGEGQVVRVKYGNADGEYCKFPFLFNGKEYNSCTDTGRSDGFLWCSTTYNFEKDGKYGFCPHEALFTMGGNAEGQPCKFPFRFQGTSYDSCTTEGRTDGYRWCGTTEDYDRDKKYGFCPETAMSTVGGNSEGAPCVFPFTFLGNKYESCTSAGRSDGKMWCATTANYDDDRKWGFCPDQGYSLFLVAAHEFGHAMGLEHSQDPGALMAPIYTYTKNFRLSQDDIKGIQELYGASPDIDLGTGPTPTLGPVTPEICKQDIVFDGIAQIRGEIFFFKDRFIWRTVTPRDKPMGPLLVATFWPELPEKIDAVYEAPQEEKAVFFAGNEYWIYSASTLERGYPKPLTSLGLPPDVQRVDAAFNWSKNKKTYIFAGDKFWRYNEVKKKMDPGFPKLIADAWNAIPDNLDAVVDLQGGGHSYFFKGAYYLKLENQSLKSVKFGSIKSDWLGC

MMP-9 = biological target: T3, MMP-9 (Homo sapiens, UniProt P14780); assay: MMP-9 assay (Anaspec kit); type: biochemical
T3 construct: purchased Anaspec, Inc. 71151/71155

RAW 264.7 cells = type: cell-based, Murine
[4] = tested on: Bacillus anthracis Sterne spores; parameters: species or system A/J mice; conditions: mouse, in vivo
[5] = rat, hepatocytes
[6] = not given; remark: listed apart in the source
human CYP3A4 = human CYP3A4 (Homo sapiens, UniProt P08684); assay: biochemical
Chain of human CYP3A4 (P08684 whole entry, looked up): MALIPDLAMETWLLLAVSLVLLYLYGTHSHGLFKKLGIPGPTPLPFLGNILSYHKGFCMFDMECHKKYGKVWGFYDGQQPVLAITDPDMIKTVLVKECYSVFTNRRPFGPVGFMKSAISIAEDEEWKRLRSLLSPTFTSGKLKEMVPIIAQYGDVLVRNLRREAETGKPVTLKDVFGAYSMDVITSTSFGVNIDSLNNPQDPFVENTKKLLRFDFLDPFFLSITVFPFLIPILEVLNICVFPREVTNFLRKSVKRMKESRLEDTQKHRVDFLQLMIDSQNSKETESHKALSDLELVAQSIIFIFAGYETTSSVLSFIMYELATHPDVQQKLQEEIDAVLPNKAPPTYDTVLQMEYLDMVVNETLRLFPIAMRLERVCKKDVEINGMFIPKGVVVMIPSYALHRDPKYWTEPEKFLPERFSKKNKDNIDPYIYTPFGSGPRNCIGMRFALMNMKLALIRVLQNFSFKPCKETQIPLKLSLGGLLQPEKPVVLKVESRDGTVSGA

human MDR1 ABCB1/Pgp = human MDR1 ABCB1/Pgp (Homo sapiens, UniProt P08183)
LF metalloproteinase = LF metalloproteinase (Bacillus anthracis, UniProt P15917); conditions: read-out: Ki of LF metalloproteinase activity; cited from earlier work
Chain of LF metalloproteinase (P15917 34-809 limits assumed): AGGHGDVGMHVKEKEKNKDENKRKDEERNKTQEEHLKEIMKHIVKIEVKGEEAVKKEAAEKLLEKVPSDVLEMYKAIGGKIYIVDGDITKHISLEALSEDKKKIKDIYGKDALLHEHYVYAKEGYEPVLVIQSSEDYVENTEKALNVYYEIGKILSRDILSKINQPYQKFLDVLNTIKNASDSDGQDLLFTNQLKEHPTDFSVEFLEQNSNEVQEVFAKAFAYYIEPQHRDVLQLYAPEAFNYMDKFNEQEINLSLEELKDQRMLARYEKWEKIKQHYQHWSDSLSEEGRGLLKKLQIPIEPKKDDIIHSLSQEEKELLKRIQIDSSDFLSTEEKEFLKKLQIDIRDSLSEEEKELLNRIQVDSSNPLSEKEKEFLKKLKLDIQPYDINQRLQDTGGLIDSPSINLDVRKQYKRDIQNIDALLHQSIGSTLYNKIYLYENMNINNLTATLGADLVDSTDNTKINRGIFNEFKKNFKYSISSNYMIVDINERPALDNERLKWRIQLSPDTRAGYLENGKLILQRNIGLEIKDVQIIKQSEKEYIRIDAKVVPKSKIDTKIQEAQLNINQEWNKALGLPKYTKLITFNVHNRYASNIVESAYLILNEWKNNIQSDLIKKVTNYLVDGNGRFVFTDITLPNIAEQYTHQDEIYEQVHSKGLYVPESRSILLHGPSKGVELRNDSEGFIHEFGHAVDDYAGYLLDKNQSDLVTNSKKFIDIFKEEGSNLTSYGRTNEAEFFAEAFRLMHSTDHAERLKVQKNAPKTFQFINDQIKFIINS

[7] = read-out: IC50 (μM) of selected LF compounds (Table 7)

Chain of lethal factor (LF) (P15917 34-809 limits assumed): as above

SMILES | Cytox. (c) Cytotoxicity against HepG2 cells (HepG2 cells) | Plasma Stab. T = 30 min (l) [1] | solubility kinetic (physchem) | half-life (in vitro [2]) | hepatocyte CLint (in vitro [2]) | half-life (in vitro [3]) | hepatocyte CLint (in vitro [3]) | inhibition at 30 µM (hERG) | IC50 (human CYP 2C19) | IC50 (human CYP2D6) | IC50 (human CYP1A2) | IC50 (human CYP2C9) | IC50 (lethal factor (LF); [7]) | Pampa (d) permeability class | Met. Stab. t1/2 (k) [5] | Liver S9 Stab t1/2 (m) [6] | also measured
COc1ccc(-c2ccc(/C=C3\SC(=S)N(CC(=O)O)C3=O)o2)cc1Cl [Compound 1] | Nontoxic up to 100 μM | 90% | < 10 µg/mL | 37.1 min | 21.6 µL/min/1e6 cells | 128 min | 5.6 | 58% | 31.3 µM | 30.5 µM | 20.9 µM | 28.3 µM |  |  |  |  | IC50 (lethal factor (LF)): 0.29 µM
O=C(O)CN1C(=O)/C(=C/c2cn(-c3ccc(Cl)cc3)nc2-c2ccc(Cl)cc2)SC1=S [Compound 34, (Z)-2-(5-((1,3-bis(4-chlorophenyl)-1H-pyrazol-4-yl)methylene)-4-oxo-2-thioxothiazolidin-3-yl)acetic acid] |  |  |  |  |  |  |  |  |  |  |  |  |  |  |  |  | IC50 (lethal factor (LF); pH 7.4, read-out: LF IC50): 2.95 µM; IC50 (BoNT A): 8.18 µM; inhibition of MMP-2 (in words) (MMP-2): did not inhibit; inhibition of MMP-9 (in words) (MMP-9): did not inhibit; protection of macrophages from LF/PA-induced cell death (RAW 264.7 cells): protect macrophages from LF/PA-induced cell death; survival compared to control group (in words, FIG. 3) [4]: survived significantly better than control
O=C(O)CN1C(=O)/C(=C/c2ccc(-c3ccc(Cl)c(Cl)c3)o2)SC1=S [Compound 64] | Nontoxic up to 100 μM | 79% | < 10 µg/mL |  |  |  |  | 67% | 36.9 µM | 47.6 µM | 2.79 µM | > 50 µM | 0.26 µM | Med. | Degraded | Degraded | IC50 (human CYP3A4): > 50 µM
O=C(O)CN1C(=O)/C(=C/c2ccc(-c3cc(C(F)(F)F)ccc3Cl)o2)SC1=S [Compound 65] | Nontoxic up to 100 μM | 82% | < 10 µg/mL | 42.4 min | 19.8 µL/min/1e6 cells | 37.3 min | 25 | 45% | > 100 µM | > 100 µM | 20.5 µM | > 100 µM | 0.19 µM |  |  |  | IC50 (human MDR1 ABCB1/Pgp): > 100 µM
O=C(O)CN1C(=O)/C(=C/c2ccc(-c3cccs3)s2)SC1=S [Compound 66, (Z)-2-(4-oxo-5-((5-(thiophen-2-yl)thiophen-2-yl)methylene)-2-thioxothiazolidin-3-yl)acetic acid] | Nontoxic up to 100 μM | 90% | < 10 µg/mL |  |  |  |  | 29% |  |  |  | > 100 µM | 2.3 µM | Med. | Degraded | Degraded | 
CNC(=O)[C@H](Cc1c[nH]c2ccccc12)NC(=O)[C@@H](CC(=O)NO)CC(C)C [GM6001] |  |  |  |  |  |  |  |  |  |  |  |  |  |  |  |  | Ki (LF metalloproteinase): ~5 µM
